Laboratory results: ChEMBL document CHEMBL1795224, “Synthesis, in vitro antioxidant, anthelmintic and molecular docking studies of novel dichloro substituted benzoxazole-triazolo-thione derivatives” (2011)
The source made the active and inactive calls. The calls are words filed in the database; no cut-off is given here.

How the values were obtained:
Assay type in all cases: functional
Metaphire posthuma [1] = assay: Anthelmintic activity against Pheretima posthuma assessed as time taken for complete paralysis at 2 %
Metaphire posthuma [2] = assay: Anthelmintic activity against Pheretima posthuma assessed as death time at 1 %
Metaphire posthuma [3] = assay: Anthelmintic activity against Pheretima posthuma assessed as time taken for complete paralysis
[4] = Antioxidant activity assessed as potassium ferric cyanide ion reducing power at 50 to 100 ug after 20 mins
Metaphire posthuma [5] = assay: Anthelmintic activity against Pheretima posthuma assessed as death time at 3 %
Metaphire posthuma [6] = assay: Anthelmintic activity against Pheretima posthuma assessed as time taken for complete paralysis at 1 %
Metaphire posthuma [7] = assay: Anthelmintic activity against Pheretima posthuma assessed as death time at 2 %
Metaphire posthuma [8] = assay: Anthelmintic activity against Pheretima posthuma assessed as time taken for complete paralysis at 3 %
Metaphire posthuma [9] = assay: Anthelmintic activity against Pheretima posthuma assessed as death time
[10] = test system: Radical scavenging activity; assay: Antioxidant activity assessed as DPPH free radical scavenging activity at 20 ug/4ml after 30 mins
[11] = Antioxidant activity assessed as ascorbic acid equivalent antioxidant capacity at 50 to 100 ug after 90 mins by phosphomolybdenum method

| SMILES | Time (Metaphire posthuma [1]) [min] | Time (Metaphire posthuma [2]) [min] | Activity (Metaphire posthuma [3]) | Activity [4] | Time (Metaphire posthuma [5]) [min] | Time (Metaphire posthuma [6]) [min] | Time (Metaphire posthuma [7]) [min] | Activity (Metaphire posthuma [8]) | Time (Metaphire posthuma [9]) [min] | Activity [10] [%] | Activity [11] |
| --- | --- | --- | --- | --- | --- | --- | --- | --- | --- | --- | --- |
| CCOC(=O)CSc1nc2cc(Cl)cc(Cl)c2o1 | 5.28 | 7.23 | Dose-dependent effect | inactive | 5.75 | 5.87 | 6.37 | Dose-dependent effect | 6.61 | 9.49 | – |
| NNc1nc2cc(Cl)cc(Cl)c2o1 | 3.08 | 4.77 | Dose-dependent effect | Active | 3.23 | 3.57 | 4.22 | Dose-dependent effect | 4.42 | 81.5 | Active |
| S=c1[nH]nc2oc3c(Cl)cc(Cl)cc3n12 | 3.82 | 6.48 | Dose-dependent effect | Active | 4.12 | 4.29 | 5.49 | Dose-dependent effect | 5.48 | 74.8 | Active |
| Cc1cc(C(C)(C)C)c(O)c(C(C)(C)C)c1 | – | – | – | – | – | – | – | – | – | 16.2 | – |
| CCOC(=O)CSc1nnc2oc3c(Cl)cc(Cl)cc3n12 | 4 | 6.13 | Dose-dependent effect | Active | 4.85 | 4.74 | 5.95 | Dose-dependent effect | 5.92 | 65.7 | Active |
| CCCSc1ccc2[nH]c(NC(=O)OC)nc2c1 [ALBENDAZOLE] | – | 7.2 | – | – | – | – | – | – | 5.37 | – | – |
| Sc1nc2cc(Cl)cc(Cl)c2o1 | 3.2 | 9.05 | Dose-dependent effect | inactive | 5.95 | 7.27 | 7.83 | Dose-dependent effect | 8.22 | 32.1 | – |
| O=[N+]([O-])c1ccc(NCn2nc3oc4c(Cl)cc(Cl)cc4n3c2=S)cc1 | 5.97 | 8.33 | Dose-dependent effect | Active | 6.64 | 6.58 | 7.07 | Dose-dependent effect | 7.95 | 18 | Active |
